This is an account of results in patent US20220031596A1, “ANTI-AGING AGENT AND ANTI-AGING METHOD” (priority 2018, published 2022).

For the test, the system named is calcitonin concentration in the plasma. Description: Evaluation of calcitonin secretion promoting effect (plasma calcitonin, 24-week oral ingestion). The class given is in vivo, human. As to conditions: for calcitonin concentration in the plasma, 0 weeks (before ingestion) / calcitonin concentration in the plasma, 24 weeks (after ingestion) / calcitonin concentration in the plasma, Change rate (24 weeks - 0 weeks): High Dose Group (200 mg/daily, oral), mean±SD; for calcitonin concentration in the plasma, 0 weeks (before ingestion): baseline. On the procedure: In order to confirm a change in the calcitonin quantity before and after ingestion of the nicotinamide mononucleotide, a test was conducted on healthy males and females aged 50 to 70 years.
As a sample of Working Example 12, a capsule formulation containing the nicotinamide mononucleotide and starch (200 mg of the nicotinamide mononucleotide in 4 capsules) (manufactured by SHINKOWA PHARMACEUTICAL Co., Ltd.) was used.
Each group consisting of five healthy males and females aged 50 to 70 years in an unbiased age group ingested the above high dose capsule formulation once a day by 4 capsules for 24 weeks (total 10 subjects, 200 mg/daily ingestion). In order to conduct appropriate evaluations, those who had been regularly using medical products for chronic diseases, those who had been consuming healthy foods that may affect clinical research, and those who were currently participating in other clinical researches or clinical trials or had participated in other clinical researches or clinical trials within the last three months were excluded from the subject for the evaluation. The capsule formulations were ingested at 10 am (between meals and fasting state) together with water or lukewarm water (oral administration).
Measurement of the calcitonin quantity in the plasma was conducted by requesting the measurement to an external public organization according to a usual method. FIGS. 24a to 24c indicate transitions of the calcitonin concentration (pg/ml) in the plasma for 24 weeks. FIG. 24a represents the transitions of the whole subjects; FIG. 24b represents the transitions of the male subjects; FIG. 24c represents the transitions of the female subjects. Further, FIGS. 25a to 25c indicate change rates (%) of the blood calcitonin concentration up to 24 weeks when the nicotinamide mononucleotide was orally administered to the subjects for 24 weeks. FIG. 25a represents the change rates of the whole subjects; FIG. 25b represents the change rates of the male subjects; FIG. 25c represents the change rates of the female subjects. Further, Table 11 indicates the numerical values of the calcitonin concentration (pg/ml) in the plasma before the ingestion of the nicotinamide mononucleotide (0 weeks) and after the ingestion of the nicotinamide mononucleotide (24 weeks). Note that the numerical values represent mean values±standard deviation.

Regarding `NC(=O)c1ccc[n+]([C@@H]2O[C@H](COP(=O)([O-])O)[C@@H](O)[C@H]2O)c1` [nicotinamide mononucleotide], for the setting “Female”, the “calcitonin concentration in the plasma, 0 weeks (before ingestion)” value (shortened to “calcitonin concentration … (before ingestion)”) was found to be 0.60 ± 0.10 pg/mL; the “calcitonin concentration in the plasma, 24 weeks (after ingestion)” value (“calcitonin concentration … (after ingestion)” for short) turned out to be 0.71 ± 0.20 pg/mL; the “calcitonin concentration in the plasma, Change rate (24 weeks - 0 weeks)” value stood at 0.11 ± 0.10 pg/mL. In addition, where the note is “Male”, the “calcitonin concentration … (before ingestion)” value turned out to be 2.35 ± 1.97 pg/mL; the “calcitonin concentration … (after ingestion)” value turned out to be 2.44 ± 2.21 pg/mL; the “calcitonin concentration in the plasma, Change rate (24 weeks - 0 weeks)” value was found to be 0.09 ± 0.37 pg/mL. For the same molecule, under “Whole Subjects”, the “calcitonin concentration … (before ingestion)” value turned out to be 1.48 ± 1.61 pg/mL; the “calcitonin concentration … (after ingestion)” value worked out at 1.58 ± 1.74 pg/mL; the “calcitonin concentration in the plasma, Change rate (24 weeks - 0 weeks)” value came to 0.10 ± 0.25 pg/mL. The “calcitonin concentrations in the plasma, effect of ingestion (in words)” value (oral, 200 mg/daily, 24 weeks, FIGS. 24a-24c, 25a-25c) is “increased”.
